Experimental data from the NIST ThermoML archive (doi:10.1016/j.jct.2006.07.022).
± gives the expanded uncertainty stated by the source. Values belong to the compound of their own block, whether it stands above or below them.

Columns and labels:
[1] = refractive index (Na D-line) (dimensionless); conditions: 298.15 K; 101.33 kPa; Liquid; Standard Abbe refractometry
[2] = xn = mol fraction of the nth substance listed; conditions: 101 kPa, Liquid

refractive index [1]: 1.5009 ± 0.0007
SMILES: c1ccccc1 [benzene]

mass density ([2]; 293.15 K, x1 = 1): 878.96 ± 0.33 kg/m3 | mass density ([2]; 303.15 K, x1 = 1): 868.21 ± 0.34 kg/m3 | mass density ([2]; 313.15 K, x1 = 1): 857.4 ± 0.36 kg/m3 | mass density ([2]; 323.15 K, x1 = 1): 846.55 ± 0.38 kg/m3 | mass density ([2]; 333.15 K, x1 = 1): 835.66 ± 0.39 kg/m3 | mass density ([2]; 343.15 K, x1 = 1): 824.71 ± 0.41 kg/m3
SMILES: c1ccccc1 [benzene] + CN(C)C=O

SMILES: CN(C)C=O [dimethylformamide]
refractive index [1]: 1.4307 ± 0.0007

SMILES: CN(C)C=O [dimethylformamide] + CCc1ccccc1
mass density ([2]; 293.15 K, x2 = 0): 948.58 ± 0.25 kg/m3 | mass density ([2]; 303.15 K, x2 = 0): 939.46 ± 0.26 kg/m3 | mass density ([2]; 313.15 K, x2 = 0): 930.12 ± 0.28 kg/m3 | mass density ([2]; 323.15 K, x2 = 0): 920.55 ± 0.29 kg/m3 | mass density ([2]; 333.15 K, x2 = 0): 910.75 ± 0.3 kg/m3 | mass density ([2]; 343.15 K, x2 = 0): 900.73 ± 0.32 kg/m3 | mass density ([2]; 353.15 K, x2 = 0): 890.48 ± 0.34 kg/m3

refractive index [1]: 1.4962 ± 0.0008
SMILES: CCc1ccccc1 [ethylbenzene]

SMILES: Cc1ccccc1 [toluene]
refractive index [1]: 1.4965 ± 0.0008

SMILES: Cc1ccccc1 [toluene] + CN(C)C=O
mass density ([2]; 293.15 K, x1 = 1): 866.8 ± 0.94 kg/m3 | mass density ([2]; 303.15 K, x1 = 1): 857.53 ± 0.94 kg/m3 | mass density ([2]; 313.15 K, x1 = 1): 848.23 ± 0.94 kg/m3 | mass density ([2]; 323.15 K, x1 = 1): 838.91 ± 0.94 kg/m3 | mass density ([2]; 333.15 K, x1 = 1): 829.55 ± 0.95 kg/m3 | mass density ([2]; 343.15 K, x1 = 1): 820.17 ± 0.95 kg/m3 | mass density ([2]; 353.15 K, x1 = 1): 810.77 ± 0.95 kg/m3
